Values of other authors, collected in paper PMC11280411, “Phytochemical Investigation of Carex praecox Schreb. and ACE-Inhibitory Activity of Oligomer Stilbenes of the Plant” (Molecules, 2024).

System: SARS-CoV-2 USA-WA1/2020, B.1.1.7, and B.1.351 variants
Parameters: method as in PMID 34543092
Settings: cited from earlier work

Oc1ccc(C2Oc3cc(O)cc4c3C2c2cc(O)cc(O)c2C(c2ccc(O)cc2)C4C2c3cc(O)cc4c3C(c3cc(O)cc(O)c3C2c2ccc(O)cc2)C(c2ccc(O)cc2)O4)cc1 (single isomer, unassigned; (-)) [Compound 16, (–)-hopeaphenol]
inhibition of cellular entry of SARS-CoV-2: inhibited cellular entry of SARS-CoV-2 USA-WA1/2020, B.1.1.7, and B.1.351 variants
